Like-named read-outs stand apart in the source and are kept apart here.
Columns and labels:
S. aureus ATCC 6538 = assay: Disinfection time test (Essai 2, Tables D-F), reaction at 22°, subcultures 72 h at 37°C; format: cell-based, Staphylococcus aureus
Procedure: (§1) Un autre essai a été réalisé à partir des solutions suivantes : • 100 ml d'une solution à 0,1 % de digluconate de chlorhexidine (pH 6) et • 100 ml d'une solution à 0,1 % de Bardac 22®.
(§2) Les tests ont été réalisés conformément au protocole décrit dans le Chapitre I/2.1 et 2.2 de Richtlinien für die Prüfung und Bewertung chemischer Desinfektionsverfahren der DGHM, Stand 1.1., 1981).
(§3) Les tests dont les résultats sont illustrés aux Tableaux D, E et F ont été réalisés à une température de réaction de 22° avec une incubation des sous-cultures 72 heures à 37°C avec comme substances inactivantes : Tween® 80 3 % + saponine 3 % + cystéine 0,1 % + histidine 0,1 %; ces Tableaux illustrent respectivement l'activité bactéricide et fongicide d'une solution aqueuse à 0,1 % de digluconate de chlorhexidine, d'une solution aqueuse à 0,1 % de Bardac 22® et d'un mélange à part égale des deux composés et montrent l'action des antiseptiques précités, en fonction du temps de contact, et font apparaître la même synergie d'action de l'association que ci-dessus, dans la mesure où l'association des deux composés permet de diminuer significativement leur concentration, pour l'obtention d'un même effet. TABLEAU D

spermatozoïdes = assay: Spermicidal action: vitality of spermatozoa (eosin-nigrosin, 100 spermatozoa examined); format: cell-based; conditions: Homo sapiens, Sperm, solution 0,5 %, read-out: vitalité des spermatozoïdes
Description: Les différents échantillons de sperme (une goutte de sperme/échantillon) sont obtenus à partir de volontaires sains.
Une goutte de sperme est traitée par l'éosinenigrosine. Un frottis est ensuite réalisé et cent spermatozoïdes sont examinés au microscope. Les cellules mortes sont colorées en rouge, soit totalement, soit partiellement. Les cellules vivantes sont incolores.
Les substances étudiées ont été, le Bardac® et le digluconate de chlorhexidine, testés seuls et en association conformément à l'invention. Les différentes étapes du protocole sont indiquées aux Tableaux IV à VI.
Le temps de contact maximum des différentes substances et du sperme a été limité à 3 minutes afin de garantir l'efficacité de la méthode dans les conditions d'utilisation. La concentration des solutions actives dans le sperme a été limitée à 10 % afin de diminuer les risques de toxicité des produits pour les muqueuses. TABLEAU IV

[1] = system: Candida albicans ATCC 1031; assay: Disinfection time test (Essai 2, Tables D-F), reaction at 22°, subcultures 72 h at 37°C; format: cell-based
Procedure: as §1, §2, §3

[H]/N=C(\N/C(=N/[H])NCCCCCCNC(=N)NC(=N)Nc1ccc(Cl)cc1)Nc1ccc(Cl)cc1 [Chlorhexidine, digluconate de chlorhexidine, reference compound]
croissance (S. aureus ATCC 6538; Conc. 0,1 % (vol/vol), 1 min): + | croissance (S. aureus ATCC 6538; Conc. 0,1 % (vol/vol), 3 min): + | croissance (S. aureus ATCC 6538; Conc. 0,1 % (vol/vol), 5 min): + | croissance (S. aureus ATCC 6538; Conc. 0,1 % (vol/vol), 15 min): + | croissance (S. aureus ATCC 6538; Conc. 0,1 % (vol/vol), 30 min): + | croissance (S. aureus ATCC 6538; Conc. 0,1 % (vol/vol), 60 min): + | croissance (S. aureus ATCC 6538; Conc. 0,05 % (vol/vol), 1 min): + | croissance (S. aureus ATCC 6538; Conc. 0,5 % (vol/vol), 1 min): + | croissance (S. aureus ATCC 6538; Conc. 0,05 % (vol/vol), 3 min): + | croissance (S. aureus ATCC 6538; Conc. 0,5 % (vol/vol), 3 min): + | croissance (S. aureus ATCC 6538; Conc. 0,05 % (vol/vol), 5 min): + | croissance (S. aureus ATCC 6538; Conc. 0,5 % (vol/vol), 5 min): + | croissance (S. aureus ATCC 6538; Conc. 0,05 % (vol/vol), 15 min): + | croissance (S. aureus ATCC 6538; Conc. 0,5 % (vol/vol), 15 min): + | croissance (S. aureus ATCC 6538; Conc. 0,05 % (vol/vol), 30 min): + | croissance (S. aureus ATCC 6538; Conc. 0,5 % (vol/vol), 30 min): + | croissance (S. aureus ATCC 6538; Conc. 0,05 % (vol/vol), 60 min): + | croissance (S. aureus ATCC 6538; Conc. 0,5 % (vol/vol), 60 min): + | croissance (S. aureus ATCC 6538; Conc. 1 % (vol/vol), 1 min): + | croissance (S. aureus ATCC 6538; Conc. 1 % (vol/vol), 3 min): + | croissance (S. aureus ATCC 6538; Conc. 1 % (vol/vol), 5 min): + | croissance (S. aureus ATCC 6538; Conc. 1 % (vol/vol), 15 min): + | croissance (S. aureus ATCC 6538; Conc. 1 % (vol/vol), 30 min): + | croissance (S. aureus ATCC 6538; Conc. 1 % (vol/vol), 60 min): + | croissance (S. aureus ATCC 6538; Conc. 5 % (vol/vol), 1 min): + | croissance (S. aureus ATCC 6538; Conc. 5 % (vol/vol), 3 min): + | croissance (S. aureus ATCC 6538; Conc. 5 % (vol/vol), 5 min): + | croissance (S. aureus ATCC 6538; Conc. 5 % (vol/vol), 15 min): + | croissance (S. aureus ATCC 6538; Conc. 5 % (vol/vol), 30 min): + | croissance (S. aureus ATCC 6538; Conc. 5 % (vol/vol), 60 min): + | croissance (S. aureus ATCC 6538; Conc. 10 % (vol/vol), 1 min): + | croissance (S. aureus ATCC 6538; Conc. 10 % (vol/vol), 3 min): + | croissance (S. aureus ATCC 6538; Conc. 10 % (vol/vol), 5 min): + | croissance (S. aureus ATCC 6538; Conc. 10 % (vol/vol), 15 min): + | croissance (S. aureus ATCC 6538; Conc. 10 % (vol/vol), 30 min): + | croissance (S. aureus ATCC 6538; Conc. 10 % (vol/vol), 60 min): - | croissance (S. aureus ATCC 6538; Conc. 25 % (vol/vol), 1 min): + | croissance (S. aureus ATCC 6538; Conc. 25 % (vol/vol), 3 min): + | croissance (S. aureus ATCC 6538; Conc. 25 % (vol/vol), 5 min): + | croissance (S. aureus ATCC 6538; Conc. 25 % (vol/vol), 15 min): + | croissance (S. aureus ATCC 6538; Conc. 25 % (vol/vol), 30 min): - | croissance (S. aureus ATCC 6538; Conc. 25 % (vol/vol), 60 min): - | viability at 0.5 % (spermatozoïdes; 1 min, 1 Min, 5 % dans le sperme): 77 ± 10.8% | viability at 0.5 % (spermatozoïdes; 1 min, 1 Min, 10 % dans le sperme): 77.2 ± 5.6% | viability at 0.5 % (spermatozoïdes; 0.05 h, 3 Min, 5 % dans le sperme): 78 ± 5.7% | viability at 0.5 % (spermatozoïdes; 0.05 h, 3 Min, 10 % dans le sperme): 75.5% | croissance ([1]; Conc. 0,1 % (vol/vol), 1 min): + | croissance ([1]; Conc. 0,1 % (vol/vol), 3 min): + | croissance ([1]; Conc. 0,1 % (vol/vol), 5 min): + | croissance ([1]; Conc. 0,1 % (vol/vol), 15 min): + | croissance ([1]; Conc. 0,1 % (vol/vol), 30 min): + | croissance ([1]; Conc. 0,1 % (vol/vol), 60 min): + | croissance ([1]; Conc. 0,05 % (vol/vol), 1 min): + | croissance ([1]; Conc. 0,5 % (vol/vol), 1 min): + | croissance ([1]; Conc. 0,05 % (vol/vol), 3 min): + | croissance ([1]; Conc. 0,5 % (vol/vol), 3 min): + | croissance ([1]; Conc. 0,05 % (vol/vol), 5 min): + | croissance ([1]; Conc. 0,5 % (vol/vol), 5 min): + | croissance ([1]; Conc. 0,05 % (vol/vol), 15 min): + | croissance ([1]; Conc. 0,5 % (vol/vol), 15 min): + | croissance ([1]; Conc. 0,05 % (vol/vol), 30 min): + | croissance ([1]; Conc. 0,5 % (vol/vol), 30 min): + | croissance ([1]; Conc. 0,05 % (vol/vol), 60 min): + | croissance ([1]; Conc. 0,5 % (vol/vol), 60 min): + | croissance ([1]; Conc. 1 % (vol/vol), 1 min): + | croissance ([1]; Conc. 1 % (vol/vol), 3 min): + | croissance ([1]; Conc. 1 % (vol/vol), 5 min): + | croissance ([1]; Conc. 1 % (vol/vol), 15 min): + | croissance ([1]; Conc. 1 % (vol/vol), 30 min): + | croissance ([1]; Conc. 1 % (vol/vol), 60 min): - | croissance ([1]; Conc. 5 % (vol/vol), 1 min): + | croissance ([1]; Conc. 5 % (vol/vol), 3 min): + | croissance ([1]; Conc. 5 % (vol/vol), 5 min): + | croissance ([1]; Conc. 5 % (vol/vol), 15 min): + | croissance ([1]; Conc. 5 % (vol/vol), 30 min): - | croissance ([1]; Conc. 5 % (vol/vol), 60 min): - | croissance ([1]; Conc. 10 % (vol/vol), 1 min): + | croissance ([1]; Conc. 10 % (vol/vol), 3 min): + | croissance ([1]; Conc. 10 % (vol/vol), 5 min): + | croissance ([1]; Conc. 10 % (vol/vol), 15 min): + | croissance ([1]; Conc. 10 % (vol/vol), 30 min): - | croissance ([1]; Conc. 10 % (vol/vol), 60 min): - | croissance ([1]; Conc. 25 % (vol/vol), 1 min): + | croissance ([1]; Conc. 25 % (vol/vol), 3 min): + | croissance ([1]; Conc. 25 % (vol/vol), 5 min): + | croissance ([1]; Conc. 25 % (vol/vol), 15 min): - | croissance ([1]; Conc. 25 % (vol/vol), 30 min): - | croissance ([1]; Conc. 25 % (vol/vol), 60 min): -
